# Data as given in patent US20230027361A1, “METTL3 MODULATORS” (priority 2019, published 2023).
# Like-named read-outs stand apart in the source and are kept apart here.
# Tests used:
# PRMT5-MEP50 = PRMT5-MEP50 (Homo sapiens, UniProt O14744); assay: PRMT5 Assay (PRMT5 biochemical assay)
# Procedure: Assays were performed in a 25 μl-volume in 384-well V-bottom polypropylene microplates (Greiner Bio-One, cat. No. 781280) at ambient temperature. Optimized 1× assay buffer was 20 mM Tris-HCl pH 8.0, 1 mM DTT, […]. For compound screening PRMT5-MEP50 (final concentration, f.c.=2.5 nM) was added using a Multidrop Combi (ThermoFisher Scientific, Waltham, Mass.) and preincubated for 5 min. Reactions were started by adding 3′ biotinylated histone H4 peptide acetylated on serine 1 (Ac-[…]-Biotin) (f.c.=100 nM) and 3H-SAM (f.c.=250 nM) substrates. Reactions proceeded for 60 minutes and were quenched with excess non-radioactive SAM (f.c.=15 μM). The reactions were then transferred to streptavidin-coated flashplates and incubated for 2 hours at 25° C. Following two washing cycles with 0.1% Tween-20, the plates were sealed and read on a TopCount (PerkinElmer, Waltham, Mass.) plate-based scintillation counter. For determination of kinetic parameters, reaction times were optimized so that measurements were taken during the initial velocity phase of the reaction.
# METTL3/METTL14 = METTL3/METTL14 (Homo sapiens, UniProt Q86U44); assay: METTL3-14 Standard Enzyme Assay (METTL3 biochemical assay)
# Procedure: Assays were performed in a 25 μl-volume in 384-well V-bottom polypropylene microplates (Greiner Bio-One, cat. No. 781280) at ambient temperature. Optimized 1× assay buffer was 20 mM HEPES pH 7.5, 50 mM KCl, 250 μM MgCl2, 1 mM DTT, 0.01% Tween, 0.01% BSG, 0.004 U/μl RNAseOUT (cat. No. 10777019, ThermoFisher Scientific, Waltham, Mass.). For compound screening METTL3/METTL14 (final concentration, f.c.=2.5 nM) was added using a Multidrop Combi (ThermoFisher Scientific, Waltham, Mass.) and preincubated for 5 min. Reactions were started by adding 3′ biotinylated RNA ([…]-biotin) (f.c.=100 nM) and 3H-SAM (f.c.=100 nM) substrates. Reactions proceeded for 30 minutes and were quenched with excess non-radioactive SAM (f.c.=15 μM). The reactions were then transferred to streptavidin-coated flashplates and incubated for 2 hours at 25° C. Following two washing cycles with 0.1% Tween-20, the plates were sealed and read on a TopCount (PerkinElmer, Waltham, Mass.) plate-based scintillation counter. For determination of kinetic parameters, reaction times were optimized so that measurements were taken during the initial velocity phase of the reaction.
# METTL1/WDR4 = METTL1/WDR4 (Homo sapiens, UniProt Q9UBP6); assay: METTL1 Assay (METTL1 biochemical assay)
# Procedure: Assays were performed in a 25 μl-volume in 384-well V-bottom polypropylene microplates (Greiner Bio-One, cat. No. 781280) at ambient temperature. Optimized 1× assay buffer was 20 mM HEPES pH 7.5, 50 mM KCl, 250 μM MgCl2, 1 mM DTT, 0.01% Tween, 0.01% BSG, 0.004 U/μl RNAseOUT (cat. No. 10777019, ThermoFisher Scientific, Waltham, Mass.). For compound screening METTL1/WDR4 (final concentration, f.c.=6.25 nM) was added using a Multidrop Combi (ThermoFisher Scientific, Waltham, Mass.) and preincubated for 5 min. Reactions were started by adding 3′ biotinylated RNA ([…]-biotin) (f.c.=25 nM) and 3H-SAM (f.c.=60 nM) substrates. Reactions proceeded for 20 minutes and were quenched with excess non-radioactive SAM (f.c.=15 μM). The reactions were then transferred to streptavidin-coated flashplates and incubated for 2 hours at 25° C. Following two washing cycles with 0.1% Tween-20, the plates were sealed and read on a TopCount (PerkinElmer, Waltham, Mass.) plate-based scintillation counter. For determination of kinetic parameters, reaction times were optimized so that measurements were taken during the initial velocity phase of the reaction.
# [1] = PRMT5 biochemical assay, read-out: PRMT5 IC50
# [2] = METTL1 biochemical assay; read-out: METTL1 IC50
# [3] = METTL3 biochemical assay, read-out: METTL3 IC50
# METTL1/WDR4, sequence (Q9UBP6 whole entry, species assumed): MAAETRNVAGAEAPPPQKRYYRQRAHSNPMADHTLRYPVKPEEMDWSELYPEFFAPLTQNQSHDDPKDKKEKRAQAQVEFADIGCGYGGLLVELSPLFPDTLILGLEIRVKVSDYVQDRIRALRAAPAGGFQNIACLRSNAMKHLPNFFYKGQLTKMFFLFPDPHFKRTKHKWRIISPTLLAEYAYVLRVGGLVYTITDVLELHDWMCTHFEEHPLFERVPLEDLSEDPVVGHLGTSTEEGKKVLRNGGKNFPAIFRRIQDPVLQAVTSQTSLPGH
# METTL1/WDR4, sequence (P57081 whole entry partner, species assumed): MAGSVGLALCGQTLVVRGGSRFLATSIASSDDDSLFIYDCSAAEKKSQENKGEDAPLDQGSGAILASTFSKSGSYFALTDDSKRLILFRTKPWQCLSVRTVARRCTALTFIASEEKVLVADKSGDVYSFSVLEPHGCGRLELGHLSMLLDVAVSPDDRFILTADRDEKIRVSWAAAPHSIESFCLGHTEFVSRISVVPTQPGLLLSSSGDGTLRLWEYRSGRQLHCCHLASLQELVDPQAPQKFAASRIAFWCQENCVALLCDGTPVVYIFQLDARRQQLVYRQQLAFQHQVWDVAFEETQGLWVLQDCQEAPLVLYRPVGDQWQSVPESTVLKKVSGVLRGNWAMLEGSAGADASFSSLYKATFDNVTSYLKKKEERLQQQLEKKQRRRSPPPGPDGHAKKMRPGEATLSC
# PRMT5-MEP50, sequence (O14744 whole entry): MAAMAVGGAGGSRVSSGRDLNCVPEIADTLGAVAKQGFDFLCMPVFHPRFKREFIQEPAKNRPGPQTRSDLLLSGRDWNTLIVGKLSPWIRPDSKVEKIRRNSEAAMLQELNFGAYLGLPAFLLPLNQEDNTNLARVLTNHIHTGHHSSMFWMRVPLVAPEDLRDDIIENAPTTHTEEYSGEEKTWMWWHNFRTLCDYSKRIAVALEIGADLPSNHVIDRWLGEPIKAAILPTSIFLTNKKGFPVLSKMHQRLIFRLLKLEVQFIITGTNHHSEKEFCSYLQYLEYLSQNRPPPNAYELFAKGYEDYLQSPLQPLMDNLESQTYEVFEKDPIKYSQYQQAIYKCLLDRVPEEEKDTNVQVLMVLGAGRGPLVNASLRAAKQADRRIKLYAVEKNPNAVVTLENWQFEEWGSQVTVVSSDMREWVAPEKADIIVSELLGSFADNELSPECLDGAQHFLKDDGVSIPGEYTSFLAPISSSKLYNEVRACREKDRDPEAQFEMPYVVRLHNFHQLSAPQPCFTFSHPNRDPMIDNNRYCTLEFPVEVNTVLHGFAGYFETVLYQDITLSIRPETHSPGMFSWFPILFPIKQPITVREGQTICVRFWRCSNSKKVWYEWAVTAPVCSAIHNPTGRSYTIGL
# PRMT5-MEP50, sequence (Q9BQA1 whole entry partner): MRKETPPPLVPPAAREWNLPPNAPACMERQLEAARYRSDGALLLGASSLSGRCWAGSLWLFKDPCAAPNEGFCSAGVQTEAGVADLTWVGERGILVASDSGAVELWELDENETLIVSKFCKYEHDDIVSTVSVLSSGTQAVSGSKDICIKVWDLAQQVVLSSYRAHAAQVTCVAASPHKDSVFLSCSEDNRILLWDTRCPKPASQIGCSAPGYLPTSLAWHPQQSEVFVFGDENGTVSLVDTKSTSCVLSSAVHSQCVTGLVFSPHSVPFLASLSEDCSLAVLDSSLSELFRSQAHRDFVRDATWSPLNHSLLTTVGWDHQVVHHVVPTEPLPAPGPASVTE
# METTL3/METTL14, sequence (Q86U44 whole entry, species assumed): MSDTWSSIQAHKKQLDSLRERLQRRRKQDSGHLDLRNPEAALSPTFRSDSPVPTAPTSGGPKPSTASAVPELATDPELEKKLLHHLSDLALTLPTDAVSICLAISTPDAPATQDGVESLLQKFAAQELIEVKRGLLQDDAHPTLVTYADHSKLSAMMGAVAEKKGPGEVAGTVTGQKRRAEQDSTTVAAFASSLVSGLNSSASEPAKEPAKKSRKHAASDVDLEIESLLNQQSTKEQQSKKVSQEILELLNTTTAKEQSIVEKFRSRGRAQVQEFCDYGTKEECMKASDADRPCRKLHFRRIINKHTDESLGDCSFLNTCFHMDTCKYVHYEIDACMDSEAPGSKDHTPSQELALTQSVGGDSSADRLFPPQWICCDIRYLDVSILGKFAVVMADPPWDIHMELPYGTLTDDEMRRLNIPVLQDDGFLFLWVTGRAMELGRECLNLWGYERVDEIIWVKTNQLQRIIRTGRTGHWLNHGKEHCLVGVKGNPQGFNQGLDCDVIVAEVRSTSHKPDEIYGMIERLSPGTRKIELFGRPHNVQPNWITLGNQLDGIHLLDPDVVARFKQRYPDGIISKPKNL
# METTL3/METTL14, sequence (Q9HCE5 whole entry partner, species assumed): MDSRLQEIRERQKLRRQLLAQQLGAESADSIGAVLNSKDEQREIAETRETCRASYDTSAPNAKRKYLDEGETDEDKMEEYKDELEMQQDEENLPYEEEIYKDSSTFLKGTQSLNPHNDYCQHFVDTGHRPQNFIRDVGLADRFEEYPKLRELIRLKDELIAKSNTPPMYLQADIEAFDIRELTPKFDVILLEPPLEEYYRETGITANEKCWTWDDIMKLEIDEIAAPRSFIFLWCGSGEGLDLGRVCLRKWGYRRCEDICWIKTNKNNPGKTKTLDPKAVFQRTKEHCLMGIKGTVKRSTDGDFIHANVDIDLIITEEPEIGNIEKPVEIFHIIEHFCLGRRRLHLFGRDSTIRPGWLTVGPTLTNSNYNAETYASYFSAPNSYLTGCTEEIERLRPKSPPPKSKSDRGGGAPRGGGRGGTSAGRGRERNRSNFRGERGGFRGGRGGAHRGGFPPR
IC50 (PRMT5-MEP50; [1]),SMILES,IC50 (PRMT5-MEP50),IC50 (METTL3/METTL14),further results
–,CCc1nc2cc(OC[C@H]3O[C@@H](n4cc(-c5ccn(C)n5)c5c(N)ncnc54)[C@@H](F)[C@@H]3O)ccc2o1 [I-168],> 1000 nM,> 1000 nM,–
–,CN(c1ccc2ccc(OC[C@H]3O[C@@H](n4cc(-c5ccn(C)n5)c5c(N)ncnc54)[C@@H](F)[C@@H]3O)cc2n1)C1CCC1 [I-202],> 1000 nM,< 10 nM,–
–,Cn1ccc(-c2cn([C@H]3C[C@H](O)[C@@H](CCc4ccc5ccc(N6CCC6)nc5c4)O3)c3ncnc(N)c23)n1 [I-194],> 1000 nM,< 10 nM,–
–,Cn1ccc(-c2cn([C@@H]3O[C@H](COc4ccc5ccc(NC6CNC6)nc5c4)[C@@H](O)[C@@H]3F)c3ncnc(N)c23)n1 [I-196],> 1000 nM,100 to 1000 nM,–
> 1000 nM,Nc1ncnc2c1ccn2[C@@H]1O[C@H](COc2ccc3ccc(NC4CCC4)nc3c2)[C@@H](O)[C@@H]1F [I-185],–,–,IC50 (METTL3/METTL14; [3]): < 10 nM
–,Nc1ncnc2c1c(-n1cccn1)cn2[C@@H]1C[C@H](CCc2cc3nc(N4CCC4)ccc3cc2F)[C@@H](O)C1 [I-210],> 1000 nM,< 10 nM,–
–,CNc1nc2cc(OC[C@H]3O[C@@H](n4cc(-c5ccn(C)n5)c5c(N)ncnc54)[C@@H](F)[C@@H]3O)ccc2s1 [I-176],> 1000 nM,100 to 1000 nM,–
100 to 1000 nM,Nc1ncnc2c1ccn2[C@@H]1O[C@H](COc2ccc3ccc(N[C@H]4C[C@@H](N)C4)nc3c2)[C@@H](O)[C@@H]1F [I-204],–,–,IC50 (METTL3/METTL14; [3]): 100 to 1000 nM
–,CCc1nc2cc(OC[C@H]3O[C@@H](n4cc(-c5ccn(C)n5)c5c(N)ncnc54)[C@@H](F)[C@@H]3O)ccc2[nH]1 [I-172],> 1000 nM,100 to 1000 nM,–
–,CN(CCS(C)(=O)=O)c1ccc2ccc(OC[C@H]3O[C@@H](n4cc(-c5ccn(C)n5)c5c(N)ncnc54)[C@@H](F)[C@@H]3O)cc2n1 [I-166],> 1000 nM,100 to 1000 nM,–
> 1000 nM,Nc1cc(OC[C@H]2O[C@@H](n3ccc4c(N)ncnc43)[C@@H](F)[C@@H]2O)ccc1C(=O)N1CCNCC1 [I-175],–,–,IC50 (METTL3/METTL14; [3]): > 1000 nM
–,CNc1nc2cc(OC[C@H]3O[C@@H](n4cc(-n5ccc(C)n5)c5c(N)ncnc54)C[C@@H]3O)ccc2cc1F [I-207],> 1000 nM,> 1000 nM,–
> 1000 nM,Nc1ncnc2c1ccn2[C@@H]1O[C@H](CCC2CCNCC2)[C@@H](O)[C@@H]1F [I-192],–,–,IC50 (METTL3/METTL14; [3]): 100 to 1000 nM
–,CCc1cc(N(C)C2CC2)c2ccc(OC[C@H]3O[C@@H](n4ccc5c(N)ncnc54)C[C@@H]3O)cc2n1 [I-161],–,–,IC50 (METTL3/METTL14; [3]): 10 to 100 nM
–,CNc1nc2cc(OC[C@H]3O[C@@H](n4cc(-c5ccn(C)n5)c5c(N)ncnc54)[C@@H](F)[C@@H]3O)ccc2[nH]1 [I-208],100 to 1000 nM,< 10 nM,–
10 to 100 nM,Nc1ncnc2c1ccn2[C@H]1C[C@H](O)[C@@H](COc2ccc3ccc(N4CC(N)C4)nc3c2)O1 [I-184],–,–,IC50 (METTL3/METTL14; [3]): 100 to 1000 nM
> 1000 nM,Nc1ncnc2c1ccn2[C@@H]1O[C@H](COc2ccc3ccc(N4CC(N)C4)nc3c2)[C@@H](O)[C@@H]1F [I-188],–,–,IC50 (METTL3/METTL14; [3]): 10 to 100 nM
–,CNc1nc2cc(OC[C@H]3O[C@@H](n4cc(-c5ccn(C)n5)c5c(N)ncnc54)[C@@H](F)[C@@H]3O)ccc2o1 [I-173],> 1000 nM,100 to 1000 nM,–
–,Cn1ccc(-c2cn([C@@H]3O[C@H](COc4ccc5sc(N6CCC6)nc5c4)[C@@H](O)[C@@H]3F)c3ncnc(N)c23)n1 [I-177],> 1000 nM,10 to 100 nM,–

IC50 (PRMT5-MEP50; [1]),SMILES,IC50 (PRMT5-MEP50),IC50 (METTL3/METTL14),further results
–,Cn1ccc(-c2cn([C@@H]3O[C@H](COc4ccc5ccc(N[C@H]6C[C@H](N)C6)nc5c4)[C@@H](O)[C@@H]3F)c3ncnc(N)c23)n1 [I-197],100 to 1000 nM,10 to 100 nM,–
> 1000 nM,CC1(C)COC(c2cn([C@@H]3O[C@H](COc4ccc5ccc(N6CCC6)nc5c4)[C@@H](O)[C@@H]3F)c3ncnc(N)c23)=N1 [I-213],–,–,IC50 (METTL3/METTL14; [3]): < 10 nM
–,Cn1ccc(-c2cn([C@@H]3O[C@H](COc4ccc5ccc(N[C@H]6C[C@@H](N)C6)nc5c4)[C@@H](O)[C@@H]3F)c3ncnc(N)c23)n1 [I-201],100 to 1000 nM,10 to 100 nM,–
–,CNc1nc2cc(OC[C@H]3O[C@@H](n4cc(-n5cccn5)c5c(N)ncnc54)[C@@H](F)[C@@H]3O)ccc2s1 [I-195],> 1000 nM,100 to 1000 nM,–
–,Cn1ccc(-c2cn([C@@H]3O[C@H](COc4ccc5ncc(N6CCC6)nc5c4)[C@@H](O)[C@@H]3F)c3ncnc(N)c23)n1 [I-189],> 1000 nM,10 to 100 nM,–
–,Cc1ccn(-c2cn([C@@H]3O[C@H](COc4ccc5ccc(N6CC(N)C6)nc5c4)[C@@H](O)[C@@H]3F)c3ncnc(N)c23)n1 [I-186],100 to 1000 nM,10 to 100 nM,–
–,Cn1ccc(-c2cn([C@@H]3O[C@H](COc4ccc(C(=O)N5CCNCC5)c(N)c4)[C@@H](O)[C@@H]3F)c3ncnc(N)c23)n1 [I-174],> 1000 nM,100 to 1000 nM,–
> 1000 nM,CN(C)Cc1cn([C@@H]2O[C@H](COc3ccc4ccc(N5CCC5)nc4c3)[C@@H](O)[C@@H]2F)c2ncnc(N)c12 [I-214],–,–,IC50 (METTL3/METTL14; [3]): < 10 nM
–,Nc1ncnc2c1c(-n1cccn1)cn2C1CC(CCc2ccc3ccc(NC4CCC4)nc3c2)C(O)C1F (centres unmarked) [I-235],10 to 100 nM,100 to 1000 nM,–
–,Cn1ccc(-c2cn([C@@H]3O[C@H](COc4ccc5ccc(NC67CC(C6)C7)nc5c4)[C@@H](O)[C@@H]3F)c3ncnc(N)c23)n1 [I-200],100 to 1000 nM,< 10 nM,–
10 to 100 nM,CNc1ccc2sc(CC[C@H]3O[C@@H](n4ccc5c(N)ncnc54)[C@@H](F)[C@@H]3O)cc2n1 [I-193],–,–,IC50 (METTL3/METTL14; [3]): 10 to 100 nM
–,Cc1ccn(-c2cn([C@@H]3O[C@H](COc4ccc5ccc(N6CC(O)C6)nc5c4)[C@@H](O)[C@@H]3F)c3ncnc(N)c23)n1 [I-187],> 1000 nM,< 10 nM,–
–,Cn1ccc(-c2cn([C@@H]3O[C@H](COc4ccc5ccc(C(=O)N6CCC6)nc5c4)[C@@H](O)[C@@H]3F)c3ncnc(N)c23)n1 [I-203],> 1000 nM,> 1000 nM,–
–,CCNc1ccc2ccc(CC[C@H]3C[C@@H](n4cc(-n5cccn5)c5c(N)ncnc54)C[C@@H]3O)cc2n1 [I-209],–,< 10 nM,–
> 1000 nM,Nc1ncnc2c1ccn2[C@H]1C[C@H](O)[C@@H](CCc2ccc3ccc(N4CCC4)nc3c2)O1 [I-198],–,–,IC50 (METTL3/METTL14; [3]): 10 to 100 nM
–,Nc1ncnc2c1c(-c1cnccn1)cn2[C@@H]1O[C@H](COc2ccc3ccc(N4CCC4)nc3c2)[C@@H](O)[C@@H]1F [I-215],> 1000 nM,< 10 nM,–
–,CN(C)C(=O)c1cn([C@@H]2O[C@H](COc3ccc4ccc(N5CCC5)nc4c3)[C@@H](O)[C@@H]2F)c2ncnc(N)c12 [I-216],100 to 1000 nM,10 to 100 nM,–
–,Cn1ccc(-c2cn([C@H]3C[C@H](O)[C@@H](COc4ccc5ccc(N6CC(N)C6)nc5c4)O3)c3ncnc(N)c23)n1 [I-182],> 1000 nM,< 10 nM,–

SMILES,IC50 (PRMT5-MEP50; [1]),IC50 (PRMT5-MEP50),IC50 (METTL3/METTL14),further results
Nc1ncnc2c1ccn2[C@@H]1C[C@H](CCc2ccc3ccc(NCC4CC4)nc3c2)[C@@H](O)[C@H]1O [I-132],< 10 nM,–,–,IC50 (METTL1/WDR4; [2]): > 1000 nM
Nc1ncnc2c1ccn2[C@@H]1C[C@H](CCc2ccc3ccccc3c2)[C@@H](O)[C@H]1O [I-136],> 1000 nM,–,–,IC50 (METTL1/WDR4; read-out: METTL1 IC50; METTL1 biochemical assay): > 1000 nM
Nc1ncnc2c1ccn2[C@@H]1C[C@H](CCc2ccc3cccnc3c2)[C@@H](O)[C@H]1O [I-133],< 10 nM,–,–,IC50 (METTL1/WDR4; [2]): > 1000 nM
Nc1ncnc2c1c([C@@H]1CCCO1)cn2[C@@H]1O[C@H](COc2ccc3ccc(N4CCC4)nc3c2)[C@@H](O)[C@@H]1F [I-224],100 to 1000 nM,–,–,IC50 (METTL3/METTL14; [3]): < 10 nM
